Experimental data published in patent US5650394A, “Use of urinastatin-like compounds to prevent premature delivery” (Adeza Biomedical, priority 1993, dated 1997).

B1: urinastatin (protein, UniProt P02760 206-352, looked up)
Inter-alpha-trypsin inhibitor …: AVLPQEEEGSGGGQLVTEVTKKEDSCQLGYSAGPCMGMTSRYFYNGTSMACETFQYGGCMGNGNNFVTEKECLQTCRTVAACNLPIVRGPCRAFIQLWAFDAVKGKCVLFPYGGCQGNGNKFYSEKECREYCGVPGDGDEELLRFSN
modifications: Inter-alpha-trypsin inhibitor light chain
notes: glycoprotein of less than about 67 kD purified from human urine

Columns and labels:
[1] = cited from earlier work; for time required for the number of uterine contractions (UC) to decrease to less than 1 per 30 minutes: 24th-35th weeks of pregnancy, tocolysis index 3-4, no PROM
[2] = Example 2 clinical comparison of regimens in 168 patients with imminent premature delivery; type: in vivo, human
Method: 168 patients in their 24th to 35 week of pregnancy were diagnosed with imminent premature delivery. The diagnosis of imminent premature delivery was based on a tocolysis index of 2 or greater. Factors of cervical dilation, ruptured membranes, uterine activity and vaginal bleeding were considered for the tocolysis index. The index is the sum of these points.
A number of regimens were compared. Group 1 received ritodrine intravenous infusion at 50-300 μg per day. Groups 2 and 3 were given daily urinastatin suppositories containing 5000 units and 1000 units, respectively. Group 4 received IV ritodrine at 50-300 μg per day and one 1000 unit urinastatin suppository per day. Group 5 received IV ritodrine at 50-300 μg per day, one 1000 unit urinastatin suppository per day, and cephalosporin. The patients were treated until they delivered.
The tocolysis index immediately before the start of treatment varied from 2-8. Elastase levels obtained from specimen of endocervical secretions were determined at admission to the study. "Hours to Neg UA", or the time until the number of uterine contractions in 30 minutes decreased to one or less, was reported. "Recur UA", or the proportion of women experiencing recurrence of at least one uterine contraction every 30 minutes after therapy lasting 4 days or longer was discontinued also was observed. "EGA Toco" is the estimated gestational age at the beginning of therapy. "EGA Del" is the estimated gestational age at delivery. The "interval" is the number of weeks between EGA Toco and EGA Del. "PTD<37 Wks" is the number of preterm births before 37 weeks. "PTD<34 Wks" is the number of preterm births before 34 weeks, or seriously premature infants.

granulocyte elastase = settings: patients treated with urinastatin (groups B, C and D); cited from earlier work

Molecule | patients with recurrence of UC after therapy was discontinued ([1]; therapy discontinued when UC had been depressed for 4 days) | time required for the number of uterine contractions (UC) to decrease to less than 1 per 30 minutes ([1]; women) | women with premature deliveries ([1]; women, 24th-35th weeks, tocolysis index 3-4) [%] | preterm deliveries of less than 34 wk, share of all deliveries ([2]; PTD<34 Wks) | preterm deliveries of less than 37 wk, share of all deliveries ([2]; PTD<37 Wks) [%] | rate of recurrence of uterine activity ([2]; in spite of continuous administration of the drug) | Hours to Neg UA: time until uterine contractions in 30 minutes decreased to one or less ([2]; study average 3.1 hr) [h] | premature deliveries (number of patients) ([1]; groups B and D had 9 and 8 patients, group C 14) | elastase in vaginal secretions (granulocyte elastase)
CC(NCCc1ccc(O)cc1)C(O)c1ccc(O)cc1 (stereo not shown) [ritodrine] | Approximately 60% | about an hour | 25 | approximately 21% | ~42 | over 30% | 1.4 |  | 
B1 |  | about 6 hours |  |  |  |  |  | no premature deliveries | decreased
